These results are taken from US20060069132A1, “Azolecarboxamide herbicides” (priority 2004, published 2006).

Molecules are shown by their SMILES.

Assay in all cases: Test B flooded paddy test
The subject of test [1] is small flower umbrella sedge. The format is in vivo, Cyperus difformis. As to conditions: Cyperus difformis, 336 h, scale 0 to 100 (0 no effect, 100 complete control), read-out: Sedge, Umbrella plant response rating. A digest of the protocol:
(§1)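 Visual control ratings, 0–100 versus untreated controls, taken after 13 to 15 days in the greenhouse. Blackgrass received a postemergence spray at the 1- to 4-leaf stage (2–18 cm); ducksalad, umbrella sedge and barnyardgrass were flooded-paddy treated at 2 leaves.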

The test system of a further test is rice. In kind it is in vivo, Oryza sativa. As to conditions: Oryza sativa, 336 h, scale 0 to 100 (0 no effect, 100 complete control), read-out: Rice plant response rating. The essentials:
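Formulated test chemicals went onto postemergence plants measuring 2 to 18 cm, at one to four leaves. For the paddy assay, species had reached two leaves. Scoring took place 13–15 days later by eye, relative to untreated plants, using 0 for no effect up to 100 for full control.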

In another test the test system is barnyardgrass. The format is in vivo, Echinochloa crus-galli. As to conditions: Echinochloa crus-galli, 336 h, scale 0 to 100 (0 no effect, 100 complete control), read-out: Barnyardgrass plant response rating. The essentials: as §1
The test system of another test is ducksalad. The format is in vivo, Heteranthera limosa. Particulars: Heteranthera limosa, 336 h, scale 0 to 100 (0 no effect, 100 complete control), read-out: Ducksalad plant response rating. The essentials:
as §1

On to `CCNC(=O)c1cccc(NC(=O)c2nc(C(C)(C)C)nn2CC)c1` [Compound 446, 3-(1,1-dimethylethyl)-1-ethyl-N-[3-[(ethylamino)carbonyl]phenyl]-1H-1,2,4-triazole-5-carboxamide], for which the pest or weed control at 125 g/ha in test [1] (125 g ai/ha) was 90%; in the test on barnyardgrass (125 g ai/ha), 70%; in the test with ducksalad (125 g ai/ha) it was 70%. Also, the pest or weed control at 500 g/ha in test [1] (500 g ai/ha) worked out at 90%; with barnyardgrass (500 g ai/ha), 90%; in the test on ducksalad (500 g ai/ha), 80%. Further, the plant injury at 125 g/ha in the test on rice (125 g ai/ha) was 80%. In the test on rice (500 g ai/ha), the plant injury at 500 g/ha is 90%.
